In patent US20110151020A1, “ACTIVE SUBSTANCE COMBINATION WITH GEMCITABINE FOR THE TREATMENT OF EPITHELIAL CANCER” (priority 2008, published 2011):
“Also recorded” adds a separate entry of the source. Where two headings read alike, the source gives them in different places.

Columns and labels:
[1] = system: CD133+ cancer stem cells in tumour cell lines; test: CD133 content by flow cytometry in tumour cell lines after 48 hours of in-vitro treatment; format: cell-based, human
Experimental: As a first step the content of cancer stem cells (measured as “CD 133-content”) in the whole population of tumour cells was measured by flow cytometry (FIGS. 1A-1C).
As a first step the content of cancer stem cells (measured as “CD 133-content”) within the entire tumour cell population was measured by flow cytometry (FIGS. 10A-10C).

[2] = system: CD133+ pancreatic cancer stem cells (L3.6pl cells); test: CD133 content by flow cytometry in L3.6pl pancreatic cancer cells; format: cell-based, human; conditions: for CD133 content of L3.6pl cells: Example 4.2, inhibitor alone or with Gemcitabine
Experimental: In this experiment, potentially effective substances for the targeted elimination of CD133^+ pancreatic cancer stem cells (CSC) were screened by means of flow cytometry following 48 hours of therapy. […] As a Gemcitabine concentration of 100 ng/ml was the lowest concentration capable of achieving a strong relative enrichment for CD133^+ cells through depletion of CD133^− cells, this concentration was chosen for subsequent experiments.
(§1) Human pancreatic cancer cell line. The highly metastatic human pancreatic cell line L3.6pl was maintained in DMEM medium (Invitrogen, Karlsruhe, Germany) with 12% Fetal Calf Serum (Biochrom, Berlin, Germany), Glutamax (Invitrogen), non-essential amino acids, and vitamins (all from PAN, Aidenbach, Germany) (Hermann et al., 2007, supra). Cultures were kept no longer than 4 weeks after recovery from frozen stocks. CSC spheres were cultured in DMEM-F12 supplemented with B27 (Gibco, Karlsruhe, Germany) and FGF-2 (PeproTech EC, London, United Kingdom) (Hermann et al., 2007, supra).
Cytometry. Pancreatic CSC were identified by CD133/1-APC or CD133-PE (Miltenyi, Bergisch-Gladbach, Germany) (Hermann et al., 2007, supra). Side population experiments were performed as described by Goodell et al. (1996) (see Goodell et al., 1996, J Exp Med 183, 1797-1806) and cells were identified by exclusion of the vital dye Hoechst 33342. To detect activation of the PI3K/Akt/mTOR pathway by means of the phosphorylation status of the s6 ribosomal protein (s6rp), cells cultivated with standard medium were stained with a rabbit anti-phospho-S6 ribosomal protein antibody (Cell Signalling Technology, Danvers, Mass.).
(§2) In vitro treatment of pancreatic cancer cells. […] For the evaluation of the in vivo tumorigenicity, […] L3.6pl cells were pretreated with the respective regimen and the remaining viable cells were orthotopically implanted into the pancreas of nude mice and evaluated on day 35. For the systemic infusion assay, cells were labelled with the Qtracker 800 labelling kit (Invitrogen) according to the manufacturer's instructions, and 5×10^5 cells were injected intravenously into mice. After 4 weeks, explanted lungs were scanned for metastases with a near-infrared imaging platform (Odyssey, Li-cor, Lincoln, Nebr.). Positive signals were verified by histology (H&E staining).
Using SB431542, a specific inhibitor of the receptors for Nodal and Activin, ALK-4 and -7 respectively, it was investigated whether the content of the CD133(+) population is affected by inhibition of Activin/Nodal signaling. As mutations affecting the TGF-superfamily pathway are very common in pancreatic neoplasms, pancreatic cell lines harboring different mutations in this pathway were screened (Table 1).

[3] = system: L3.6pl pancreatic cancer cells; test: Tumorigenicity after in vitro pre-treatment and orthotopic implantation; format: in vivo, mice
Experimental: After 96 hours of pretreatment, the remaining viable cells were orthotopically implanted into the pancreas of mice, which received no further treatment in vivo.
Cultivated pancreatic cancer cells were exposed to either Gemcitabine alone representing clinical standard therapy, SB431542 alone, or a combination of Gemcitabine and SB431542 in the above given respective concentrations. After 96 hours of pretreatment, the remaining viable cells were orthotopically implanted into the pancreas of mice, which received no further treatment in vivo.
A prerequisite of CSC is their ability to form tumours in secondary recipients. Due to the limited number of cancer (stem) cells that can be obtained from primary tissues, it is virtually impossible to reproducibly perform in vivo treatment experiments with fresh patient-derived cells. Therefore, all subsequent in vivo experiments were performed with the established L3.6pl pancreatic cancer cells. The design of the experiment is illustrated in FIG. 20A. […] After 4 days of pretreatment, the surviving cells were orthotopically implanted into the pancreas, which received no further in vivo treatment. Tumorigenicity was first determined by PET scans on day 30 (FIGS. 20B, 20C; left panel) and by final macroscopic and microscopic histological evaluation on day 35 (FIGS. 20B, 20C; right panel).
Animals and Orthotopic Implantation of Tumour Cells. Single-cell suspensions were orthotopically implanted into the pancreas of female NMRI nu/nu mice (Janvier, Le Genest-Saint-Isle, France) (Hermann et al., 2007, supra). Size and weight of the pancreatic tumours were monitored.
as §2

[4] = system: pancreatic CSC spheres; test: CSC-enriched tumour sphere assay; format: cell-based, human; conditions: ultra low adhesion 6-well plates
Experimental: First, pancreatic CSC were clonally expanded as CSC-enriched spheres (FIGS. 18C1-18C5). Floating spheres were treated in ultra low adhesion 6-well plates. After completion of the treatment, five randomly selected high-power fields were analyzed.
as §1

[5] = system: CSC population; conditions: fraction of original population remaining; cited from earlier work
[6] = system: MiaPaca cells; test: CD133 content by flow cytometry in MiaPaCa cells; format: cell-based, human
Text: (§3) Using SB431542, a specific inhibitor of the receptors for Nodal and Activin, ALK-4 and -7 respectively, it was investigated whether the content of the CD133(+) population is affected by inhibition of Activin/Nodal signaling. As mutations affecting the TGF-superfamily pathway are very common in pancreatic neoplasms, pancreatic cell lines harboring different mutations in this pathway were screened (Table 1). […] Without being bound thereto, this indicates a Nodal/[…] mediated pathway being independent from SMAD4 as an underlying mechanism.

[7] = system: BxPC3 cells; test: CD133 content by flow cytometry in BxPC3 cells; format: cell-based, human
Text: as §3

[8] = system: CD133-positive cells; test: Cell cycle / apoptosis of CD133-positive cells (BrDU flow kit); format: cell-based
Text: As the precise fate of CD133-positive cells during treatment with antagonists of Activin or Nodal was to be assessed, the cell cycle of these cells was investigated using a BrDU flow kit (see FIGS. 26A-26G).

[9] = system: Alk4/7; test: Smad2 phosphorylation after recombinant Nodal; format: cell-based
[10] = system: primary human pancreatic cancer cells; test: Sphere formation in primary human pancreatic cancer cells; format: cell-based
[11] = system: primary human pancreatic cancer tissue; test: In vivo treatment of implanted patient pancreatic tumor tissue with gemcitabine plus SB431542; parameters: species or system mice; conditions: mouse, in vivo
Experimental: FIG. 33: In vivo treatment with the Alk4/7 inhibitor SB431542. This illustrates Nodal/Activin inhibition to eliminate primary human pancreatic CSC in vivo. Tumor tissue from patient with pancreatic cancer was implanted into immunocompromised mice. Treatment was started on day 7 after implantation. Mice were randomized to gemcitabine alone or gemcitabine plus SB431542. Tumor growth was assessed on day 28.

[12] = system: CD133 positive CSC; test: CD133 positive population after extracellular antagonists of Nodal and Activin A; format: cell-based
Text: Furthermore, cells in culture were subjected to extracellular antagonists of Nodal (Lefty) and Activin A (Follistatin) to see whether both components are functionally relevant for the maintenance of the CD133 positive CSC compartment.

[13] = system: sphere derived cells (185s); test: Soft agar colony formation assay; format: cell-based; conditions: soft agar assay 14d
Text: FIGS. 31A-D: show a Gain of function by Nodal stimulation—Sphere derived cells (185s) bear a higher colony forming capacity as compared to adherent cells (185) as evidence for an enrichment in cancer stem cells (in a soft agar assay 14d).

[14] = 5 μM SB431542, 100 ng/ml Gemcitabine, ALK5 inhibitor SB-505124

CC1=C2C[C@H]3[C@@H](CC=C4C[C@@H](O)CC[C@@]43C)[C@@H]2CC[C@]12O[C@@H]1C[C@H](C)CN[C@H]1[C@H]2C [Cyclopamine, 11-deoxojervine]
content of cancer stem cells (CD 133-content) ([1]; 100 ng/ml Gemcitabine, 100 ng/ml Rapamycin, 10 μM Cyclopamine, separately or triple combination): None of the investigated molecules (Gemcitabine, Rapamycin and Cyclopamine) was capable of significantly reducing
CD133+ cell content ([2]; 48 hours of therapy, Gemcitabine 100 ng/ml): moderate, albeit significant decrease
CD133 content ([2]; inhibitor alone, CUR199691 10 μM): 55%
tumour take rate / tumorigenicity ([3]; 4 days of pretreatment, PET day 30, histology day 35): neither Cyclopamine nor Rapamycin monotherapy significantly affected tumour take rates
tumour spheres / CD133+ cells in CSC-enriched spheres [4]: reduction of tumour spheres
reduction of the original CSC population (aldehyde dehydrogenase marker) [5]: ⅓

NC(=O)c1ccc(-c2nc(-c3ccc4c(c3)OCO4)c(-c3ccccn3)[nH]2)cc1 [SB431542]
content of cancer stem cells (CD 133-content) [1, 14]: significant reduction
CD133 content 24 hours after withdrawal of therapy ([2]; 24 hours after withdrawal): already started to approach control level
CD133 content 48 h after withdrawal of therapy ([2]; 48 h after withdrawal): enrichment for CD133 compared to base level
CD133 content of L3.6pl cells [2]: decrease; also recorded: drastically reduced
tumorigenicity after in vitro pre-treatment ([3]; 96 hours pretreatment, 100 ng/ml Gemcitabine, 5 μM SB431542): close to no effect; also recorded: did not affect the tumorigenicity
CD133(+) sub-population of MiaPaca cells [6]: decrease
CD133 content of BxPC3 cells [7]: no response
induction of apoptosis in CD133-positive cells [8]: modest induction of apoptosis
phosphorylation of Smad2 (pSmad2) [9]: abrogated this increase in pSmad2
cell viability (dapi staining) [10]: did not affect cell viability
sphere formation [10]: in a dose-dependent manner reduced sphere formation
body weight [11]: lack of change
severe side effects [11]: did not result in severe side effects
white blood cell counts (WBC) [11]: lack of change

Cc1cccc(-c2[nH]c(C(C)(C)C)nc2-c2ccc3c(c2)OCO3)n1 [SB505124]
content of cancer stem cells (CD 133-content) [1, 14]: did not lead to significant reduction
CD133 content of L3.6pl cells [2]: neither alone nor in combination with Gemcitabine an effect

B1: Folistatin: single chain glycoprotein, inhibitor of Activin signaling (protein, UniProt P19883 30-344, looked up)
Follistatin: GNCWLRQAKNGRCQVLYKTELSKEECCSTGRLSTSWTEEDVNDNTLFKWMIFNGGAPNCIPCKETCENVDCGPGKKCRMNKKNKPRCVCAPDCSNITWKGPVCGLDGKTYRNECALLKARCKEQPELEVQYQGRCKKTCRDVFCPGSSTCVVDQTNNAYCVTCNRICPEPASSEQYLCGNDGVTYSSACHLRKATCLLGRSIGLAYEGKCIKAKSCEDIQCTGGKKCLWDFKVGRGRCSLCDELCPDSKSDEPVCASDNATYASECAMKEAACSSGVLLEVKHSGSCNSISEDTEEEEEDEDQDYSFPISSILEW
CD133 positive CSC population [12]: reduction of CD133 positive CSC that was similar to the reduction seen for Lefty
CD133 positive CSC population ([12]; listed as folistatin): reduction of CD133 positive cancer stem cells

B2: recombinant Nodal: recombinant Nodal, member of the TGF-β superfamily, used as stimulus (protein, UniProt Q96S42 238-347, looked up)
Nodal homolog: HHLPDRSQLCRKVKFQVDFNLIGWGSWIIYPKQYNAYRCEGECPNPVGEEFHPTNHAYIQSLLKRYQPHRVPSTCCAPVKTKPLSMLYVDNGRVLLDHHKDMIVEECGCL
phosphorylation of Smad2 (pSmad2) [9]: increased phosphorylation of downstream Smad2
colony formation [13]: further increase in colony formation
